Assay results as given in patent US8637702B2, “Derivatives of N-hydroxybenzamide for treating HIV infections” (Italfarmaco S.p.A., priority 2009, dated 2014).

Assays:
HDAC6 = target: T1, HDAC6 (Homo sapiens, UniProt Q9UBN7); assay: Inhibition of histone deacetylase isoforms, HDAC6
T1 sequence (Q9UBN7 1-1215): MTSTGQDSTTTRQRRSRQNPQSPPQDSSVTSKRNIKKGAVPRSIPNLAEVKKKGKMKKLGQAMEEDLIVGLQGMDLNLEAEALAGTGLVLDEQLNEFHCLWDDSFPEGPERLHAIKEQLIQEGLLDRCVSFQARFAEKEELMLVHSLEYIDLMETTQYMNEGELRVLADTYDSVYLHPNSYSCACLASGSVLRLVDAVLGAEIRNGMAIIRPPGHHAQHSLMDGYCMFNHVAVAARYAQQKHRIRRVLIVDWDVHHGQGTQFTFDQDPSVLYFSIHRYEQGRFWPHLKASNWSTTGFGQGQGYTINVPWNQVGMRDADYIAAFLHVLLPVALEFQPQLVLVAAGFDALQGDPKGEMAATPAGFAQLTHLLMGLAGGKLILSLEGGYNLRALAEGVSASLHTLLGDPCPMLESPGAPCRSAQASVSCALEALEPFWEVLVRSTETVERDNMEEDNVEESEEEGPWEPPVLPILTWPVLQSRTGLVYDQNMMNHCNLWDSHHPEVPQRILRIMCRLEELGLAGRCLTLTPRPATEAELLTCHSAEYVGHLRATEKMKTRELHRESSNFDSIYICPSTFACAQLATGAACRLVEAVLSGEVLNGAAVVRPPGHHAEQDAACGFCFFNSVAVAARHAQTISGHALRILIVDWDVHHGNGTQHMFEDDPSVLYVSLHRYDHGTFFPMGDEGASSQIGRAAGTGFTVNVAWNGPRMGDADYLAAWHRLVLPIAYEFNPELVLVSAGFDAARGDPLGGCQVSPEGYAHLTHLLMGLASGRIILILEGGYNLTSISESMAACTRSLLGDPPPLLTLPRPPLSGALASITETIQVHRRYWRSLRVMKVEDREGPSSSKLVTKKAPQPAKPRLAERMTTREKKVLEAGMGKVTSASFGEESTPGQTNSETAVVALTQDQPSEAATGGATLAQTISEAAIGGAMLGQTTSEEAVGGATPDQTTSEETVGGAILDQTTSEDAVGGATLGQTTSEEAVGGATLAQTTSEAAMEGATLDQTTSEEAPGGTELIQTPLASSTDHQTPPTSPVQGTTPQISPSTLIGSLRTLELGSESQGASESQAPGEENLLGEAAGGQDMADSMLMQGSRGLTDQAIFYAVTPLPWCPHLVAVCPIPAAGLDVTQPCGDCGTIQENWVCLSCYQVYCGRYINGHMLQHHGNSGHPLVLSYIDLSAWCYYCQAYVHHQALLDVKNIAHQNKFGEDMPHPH
Description: (§1) Recombinant human enzymes were acquired from BPS Biosciences (CA, USA). Isoforms of Class I HDAC1, 2, 3; HDAC6, 10 of Class IIb and Class IV HDAC11 were tested using the Fluor-de-Lys fluorogenic synthetic substrate (Enzo Life Sciences, Plymouth Meeting, Pa.). […] The recombinant human HDAC8 assay was performed using HDAC8 Fluorimetric Drug Discovery Kit (Enzo) according to the manufacturer instructions. Each inhibitor was dissolved in DMSO and then further diluted in an assay buffer. […] The assays were performed by pre-incubating each enzyme with the inhibitors for 15 minutes at 37° C. The reaction was started by adding the substrate at 37° C. and allowed to proceed for 60 minutes. The fluorescent signal was generated by adding 50 μL of a twice concentrated developer solution 2 (Enzo) containing trichostatin A 4 μM.

HDAC3 = HDAC3 (Homo sapiens, UniProt O15379); assay: Inhibition of histone deacetylase isoforms, HDAC3
Description: as §1

HDAC4 = HDAC4 (Homo sapiens, UniProt P56524); assay: Inhibition of histone deacetylase isoforms, HDAC4
Description: (§2) Recombinant human enzymes were acquired from BPS Biosciences (CA, USA). Isoforms of Class I HDAC1, 2, 3; HDAC6, 10 of Class IIb and Class IV HDAC11 were tested using the Fluor-de-Lys fluorogenic synthetic substrate (Enzo Life Sciences, Plymouth Meeting, Pa.). […] Each inhibitor was dissolved in DMSO and then further diluted in an assay buffer. […] The assays were performed by pre-incubating each enzyme with the inhibitors for 15 minutes at 37° C. The reaction was started by adding the substrate at 37° C. and allowed to proceed for 60 minutes. The fluorescent signal was generated by adding 50 μL of a twice concentrated developer solution 2 (Enzo) containing trichostatin A 4 μM.

HDAC2 = HDAC2 (Homo sapiens, UniProt Q92769); assay: Inhibition of histone deacetylase isoforms, HDAC2
Description: as §1

HDAC9 = HDAC9 (Homo sapiens, UniProt Q9UKV0); assay: Inhibition of histone deacetylase isoforms, HDAC9
Description: as §2

HDAC8 = target: T2, HDAC8 (Homo sapiens, UniProt Q9BY41); assay: Inhibition of histone deacetylase isoforms, HDAC8
T2 sequence (Q9BY41 1-377): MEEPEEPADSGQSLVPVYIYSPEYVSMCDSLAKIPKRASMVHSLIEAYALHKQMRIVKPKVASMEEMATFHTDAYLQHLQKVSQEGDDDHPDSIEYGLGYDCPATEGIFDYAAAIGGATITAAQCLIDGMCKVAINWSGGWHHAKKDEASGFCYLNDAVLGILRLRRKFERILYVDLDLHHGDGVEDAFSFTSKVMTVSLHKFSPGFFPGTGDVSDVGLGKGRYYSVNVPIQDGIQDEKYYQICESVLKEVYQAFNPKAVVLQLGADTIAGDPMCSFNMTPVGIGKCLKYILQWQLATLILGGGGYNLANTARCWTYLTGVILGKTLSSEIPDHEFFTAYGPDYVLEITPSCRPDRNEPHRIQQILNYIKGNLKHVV
Description: as §1

HDAC7 = target: T3, HDAC7 (Homo sapiens, UniProt Q8WUI4); assay: Inhibition of histone deacetylase isoforms, HDAC7
T3 sequence (Q8WUI4 1-952): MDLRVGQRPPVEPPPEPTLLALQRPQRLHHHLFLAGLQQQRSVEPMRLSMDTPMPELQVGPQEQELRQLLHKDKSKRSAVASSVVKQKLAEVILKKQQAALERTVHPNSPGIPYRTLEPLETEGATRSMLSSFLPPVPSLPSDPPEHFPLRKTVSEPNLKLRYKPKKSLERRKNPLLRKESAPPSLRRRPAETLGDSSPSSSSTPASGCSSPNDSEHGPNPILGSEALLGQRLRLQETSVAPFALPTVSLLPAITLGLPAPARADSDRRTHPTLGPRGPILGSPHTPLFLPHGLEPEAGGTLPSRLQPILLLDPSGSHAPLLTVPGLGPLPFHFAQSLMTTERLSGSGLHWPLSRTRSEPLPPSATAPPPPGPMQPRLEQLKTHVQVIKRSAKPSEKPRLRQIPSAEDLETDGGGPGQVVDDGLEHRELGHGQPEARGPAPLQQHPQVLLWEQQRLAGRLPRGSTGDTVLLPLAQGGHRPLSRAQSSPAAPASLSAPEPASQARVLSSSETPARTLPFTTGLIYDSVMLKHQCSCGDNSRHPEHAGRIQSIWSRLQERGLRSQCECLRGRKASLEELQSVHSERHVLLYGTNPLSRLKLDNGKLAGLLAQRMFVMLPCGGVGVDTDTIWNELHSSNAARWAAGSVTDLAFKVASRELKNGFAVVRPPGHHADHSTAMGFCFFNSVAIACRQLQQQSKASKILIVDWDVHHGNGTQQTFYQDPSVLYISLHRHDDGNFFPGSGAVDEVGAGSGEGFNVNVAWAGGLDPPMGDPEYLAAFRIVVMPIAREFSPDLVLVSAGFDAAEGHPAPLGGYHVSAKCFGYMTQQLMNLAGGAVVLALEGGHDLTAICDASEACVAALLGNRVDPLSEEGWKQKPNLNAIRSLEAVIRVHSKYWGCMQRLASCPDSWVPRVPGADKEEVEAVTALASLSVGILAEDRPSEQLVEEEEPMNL
Description: as §1

Chain of HDAC9 (Q9UKV0 whole entry, canonical isoform): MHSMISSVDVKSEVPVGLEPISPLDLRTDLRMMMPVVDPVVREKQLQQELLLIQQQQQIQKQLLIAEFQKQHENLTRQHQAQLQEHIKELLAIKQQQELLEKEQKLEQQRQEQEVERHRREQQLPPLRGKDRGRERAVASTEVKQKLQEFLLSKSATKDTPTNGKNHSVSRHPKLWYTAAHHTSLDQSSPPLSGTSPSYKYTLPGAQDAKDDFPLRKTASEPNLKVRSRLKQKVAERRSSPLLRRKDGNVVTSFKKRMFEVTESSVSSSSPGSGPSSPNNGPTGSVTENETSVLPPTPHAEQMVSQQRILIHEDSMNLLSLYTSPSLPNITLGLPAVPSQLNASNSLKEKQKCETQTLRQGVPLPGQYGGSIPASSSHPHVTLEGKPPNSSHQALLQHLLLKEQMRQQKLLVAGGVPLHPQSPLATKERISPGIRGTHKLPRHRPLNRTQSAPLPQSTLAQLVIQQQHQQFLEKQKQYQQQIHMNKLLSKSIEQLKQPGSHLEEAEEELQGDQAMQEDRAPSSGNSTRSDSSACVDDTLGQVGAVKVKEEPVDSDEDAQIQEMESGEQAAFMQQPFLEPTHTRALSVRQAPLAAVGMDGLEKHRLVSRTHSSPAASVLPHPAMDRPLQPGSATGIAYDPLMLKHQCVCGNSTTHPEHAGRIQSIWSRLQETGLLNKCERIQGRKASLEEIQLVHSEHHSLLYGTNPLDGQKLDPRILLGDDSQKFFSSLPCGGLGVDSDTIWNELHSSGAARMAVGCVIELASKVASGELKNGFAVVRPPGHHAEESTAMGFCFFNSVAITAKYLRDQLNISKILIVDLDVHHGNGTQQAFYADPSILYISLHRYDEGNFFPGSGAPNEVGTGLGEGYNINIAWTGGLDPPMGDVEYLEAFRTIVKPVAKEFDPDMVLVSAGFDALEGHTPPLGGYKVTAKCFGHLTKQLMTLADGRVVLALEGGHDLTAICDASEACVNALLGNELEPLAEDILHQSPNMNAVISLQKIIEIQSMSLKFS
Chain of HDAC4 (P56524 whole entry, canonical isoform): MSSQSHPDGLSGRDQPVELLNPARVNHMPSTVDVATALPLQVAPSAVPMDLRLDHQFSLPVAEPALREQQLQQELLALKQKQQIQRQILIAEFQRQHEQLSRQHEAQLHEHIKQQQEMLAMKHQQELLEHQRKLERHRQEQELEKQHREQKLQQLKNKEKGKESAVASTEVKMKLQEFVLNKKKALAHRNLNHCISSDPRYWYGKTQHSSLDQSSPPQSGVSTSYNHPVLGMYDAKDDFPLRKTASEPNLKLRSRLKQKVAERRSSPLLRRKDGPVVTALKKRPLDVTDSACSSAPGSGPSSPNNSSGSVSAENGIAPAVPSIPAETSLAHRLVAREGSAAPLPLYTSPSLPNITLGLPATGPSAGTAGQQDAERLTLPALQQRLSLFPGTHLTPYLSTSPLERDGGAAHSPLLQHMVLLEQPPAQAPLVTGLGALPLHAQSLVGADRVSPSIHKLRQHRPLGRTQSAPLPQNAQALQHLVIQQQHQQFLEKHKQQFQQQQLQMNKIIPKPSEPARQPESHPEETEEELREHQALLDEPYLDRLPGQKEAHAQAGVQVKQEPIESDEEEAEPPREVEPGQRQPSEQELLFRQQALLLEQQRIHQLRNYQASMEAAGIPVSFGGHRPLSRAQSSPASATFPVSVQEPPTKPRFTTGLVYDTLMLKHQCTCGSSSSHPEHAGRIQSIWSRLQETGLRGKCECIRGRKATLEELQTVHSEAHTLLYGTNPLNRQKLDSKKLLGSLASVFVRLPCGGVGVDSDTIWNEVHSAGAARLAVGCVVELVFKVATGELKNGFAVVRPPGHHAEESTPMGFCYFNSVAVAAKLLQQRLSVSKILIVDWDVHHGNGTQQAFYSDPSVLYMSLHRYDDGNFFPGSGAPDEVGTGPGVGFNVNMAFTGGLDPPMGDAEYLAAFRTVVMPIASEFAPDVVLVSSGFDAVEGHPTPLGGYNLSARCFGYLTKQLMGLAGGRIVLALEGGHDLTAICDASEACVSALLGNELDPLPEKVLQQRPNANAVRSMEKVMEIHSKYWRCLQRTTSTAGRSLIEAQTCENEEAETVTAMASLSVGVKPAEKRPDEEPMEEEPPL
Chain of HDAC3 (O15379 whole entry, canonical isoform): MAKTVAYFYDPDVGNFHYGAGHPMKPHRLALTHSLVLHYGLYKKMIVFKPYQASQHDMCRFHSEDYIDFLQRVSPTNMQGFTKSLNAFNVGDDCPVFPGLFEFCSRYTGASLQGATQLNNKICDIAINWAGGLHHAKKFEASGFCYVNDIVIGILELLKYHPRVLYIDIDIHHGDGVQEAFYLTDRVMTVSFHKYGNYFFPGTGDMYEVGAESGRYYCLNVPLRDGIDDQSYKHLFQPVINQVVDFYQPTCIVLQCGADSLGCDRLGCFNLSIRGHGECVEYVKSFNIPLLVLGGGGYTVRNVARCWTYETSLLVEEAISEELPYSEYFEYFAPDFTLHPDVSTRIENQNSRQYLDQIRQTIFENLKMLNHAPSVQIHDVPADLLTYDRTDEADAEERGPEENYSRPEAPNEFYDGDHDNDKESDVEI
Chain of HDAC3 (Q9Y618 395-489 partner limits assumed): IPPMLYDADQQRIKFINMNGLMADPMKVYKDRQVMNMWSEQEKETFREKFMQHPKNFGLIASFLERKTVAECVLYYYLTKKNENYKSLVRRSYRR
Chain of HDAC2 (Q92769 whole entry, canonical isoform): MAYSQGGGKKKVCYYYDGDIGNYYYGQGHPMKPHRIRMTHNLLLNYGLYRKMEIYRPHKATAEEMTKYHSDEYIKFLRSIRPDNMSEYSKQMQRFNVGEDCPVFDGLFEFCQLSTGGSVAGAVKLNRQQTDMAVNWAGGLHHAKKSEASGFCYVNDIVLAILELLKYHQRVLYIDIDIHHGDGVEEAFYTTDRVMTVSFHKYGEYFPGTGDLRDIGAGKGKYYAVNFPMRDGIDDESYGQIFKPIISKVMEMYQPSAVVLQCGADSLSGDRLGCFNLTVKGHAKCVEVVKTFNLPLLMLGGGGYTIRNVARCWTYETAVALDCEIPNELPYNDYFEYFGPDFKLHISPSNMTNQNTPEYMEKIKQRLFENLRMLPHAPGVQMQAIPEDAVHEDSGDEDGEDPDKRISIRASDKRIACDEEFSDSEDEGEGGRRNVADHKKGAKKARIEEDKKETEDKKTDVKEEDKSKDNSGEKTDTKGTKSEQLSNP

## O=C(NO)c1ccc(NC(=O)[C@H](Cc2ccc3ccccc3c2)NC(=O)c2ccccc2)cc1 [Compound g, 4-(2(S)-benzoylamino-3-naphtalen-2-yl-propionylamino)-N-hydroxy-benzamide]
HDAC6
  IC50: 3620 nM
HDAC3
  IC50: 246 nM
HDAC4
  IC50: 3110 nM
HDAC2
  IC50: 12 nM
HDAC9
  IC50: 4150 nM
HDAC8
  IC50: 492 nM
HDAC7
  IC50: 2020 nM

## O=C(NO)c1ccc(NC(=O)[C@H](Cc2ccc3ccccc3c2)NC(=O)c2ccc3c(c2)OCO3)cc1 [Compound t, benzo[1,3]dioxole-5-carboxylic acid [1(S)-(4-hydroxycarbamoyl-phenylcarbamoyl)-2-naphtalen-2-yl-ethy]-amide]
HDAC6
  IC50: 618 nM
HDAC3
  IC50: 107 nM
HDAC4
  IC50: > 10000 nM
HDAC2
  IC50: 29.5 nM
HDAC9
  IC50: > 10000 nM
HDAC8
  IC50: 162 nM
HDAC7
  IC50: 8620 nM
